# Reference: the supplement of paper PMC13380429
# ± gives the standard deviation of the averaged measurements.
# Assays:
# Conditions in all cases: 72 h
# HepG2 [1] = assay: cell viability relative to DMSO; higher = less toxic
# U2OS [2] = assay: as above
# Caco-2 [3] = assay: as above
# Calu-3 [4] = assay: as above
# Vero E6 [5] = assay: as above
# HepG2 [6] = assay: relative viability EC50 (midpoint between 100% and the lowest measured viability); higher = less toxic
# U2OS [7] = assay: as above
# Caco-2 [8] = assay: as above
# Calu-3 [9] = assay: as above
# Vero E6 [10] = assay: as above
# HepG2 [11] = assay: drug sensitivity score (DSS) for viability; higher = more toxic; extreme values may be limits of the assay
# U2OS [12] = assay: as above
# Caco-2 [13] = assay: as above
# Calu-3 [14] = assay: as above
# Vero E6 [15] = assay: as above
Structure (SMILES),cell viability (HepG2 [1]; 1 nM) [%],cell viability (HepG2 [1]; 10 nM) [%],cell viability (HepG2 [1]; 100 nM) [%],cell viability (HepG2 [1]; 1000 nM) [%],cell viability (HepG2 [1]; 10000 nM) [%],cell viability (U2OS [2]; 1 nM) [%],cell viability (U2OS [2]; 10 nM) [%],cell viability (U2OS [2]; 100 nM) [%],cell viability (U2OS [2]; 1000 nM) [%],cell viability (U2OS [2]; 10000 nM) [%],cell viability (Caco-2 [3]; 1 nM) [%],cell viability (Caco-2 [3]; 10 nM) [%],cell viability (Caco-2 [3]; 100 nM) [%],cell viability (Caco-2 [3]; 1000 nM) [%],cell viability (Caco-2 [3]; 10000 nM) [%],cell viability (Calu-3 [4]; 1 nM) [%],cell viability (Calu-3 [4]; 10 nM) [%],cell viability (Calu-3 [4]; 100 nM) [%],cell viability (Calu-3 [4]; 1000 nM) [%],cell viability (Calu-3 [4]; 10000 nM) [%],cell viability (Vero E6 [5]; 1 nM) [%],cell viability (Vero E6 [5]; 10 nM) [%],cell viability (Vero E6 [5]; 100 nM) [%],cell viability (Vero E6 [5]; 1000 nM) [%],cell viability (Vero E6 [5]; 10000 nM) [%],relative viability EC50 (HepG2 [6]) [µM],relative viability EC50 (U2OS [7]) [µM],relative viability EC50 (Caco-2 [8]) [µM],relative viability EC50 (Calu-3 [9]) [µM],relative viability EC50 (Vero E6 [10]) [µM],drug sensitivity score (HepG2 [11]),drug sensitivity score (U2OS [12]),drug sensitivity score (Caco-2 [13]),drug sensitivity score (Calu-3 [14]),drug sensitivity score (Vero E6 [15])
C[C@]12CC[C@@H](O)C[C@H]1CC[C@@H]1[C@@H]2CC[C@]2(C)C(=O)CC[C@@H]12 [3-alpha-hydroxy-5-beta-androstan-17-one],101 ± 8.8,96.6 ± 5.6,102 ± 5.1,104 ± 7.5,87.4 ± 9.7,102 ± 2.1,97.8 ± 1.6,102 ± 2.6,98.6 ± 2.8,99.9 ± 3.2,97.8 ± 5,104 ± 14,97.6 ± 4.1,98.8 ± 3.4,92.9 ± 15,99.6 ± 4.8,97.4 ± 4,96.1 ± 3.2,97.8 ± 6.8,101 ± 3.2,99.8 ± 2.9,101 ± 1.3,103 ± 3.8,103 ± 2.3,94.3 ± 1.5,> 10,> 10,> 10,> 10,> 10,0.233 ± 0.4,0,0.233 ± 0.4,0,0
N[C@@H]1c2cccnc2[C@H](OC(=O)N2CCC(n3c(=O)[nH]c4ncccc43)CC2)CC[C@H]1c1cccc(F)c1F [rimegepant],92.4,98.6,98.8,106,104,102,96.1,101,97.2,100,99.3,94.5,98.1,91.2,102,90.7,95.3,98.4,92.9,97.6,97,96.8,91.6,99.7,112,> 10,> 10,> 10,> 10,> 10,0,0,0,0,0
Nc1nc(-c2ccc(Cl)c(Cl)c2)c(-c2ccncc2)s1 [CGH2466],96.5,104,117,106,112,96.5,99.9,96.3,100,90.1,91.8,86.1,102,99.7,95.9,109,100,107,95.7,107,87.1,95.3,100,93.9,93.9,> 10,> 10,> 10,> 10,> 10,0,0,0,0,0
Nc1ncnc2c1C(=O)N(c1ccc([C@H]3CC[C@H](CC(=O)O)CC3)cc1)CCO2,91.2,101,95.3,117,92.3,104,99.6,109,102,97.5,100,90.6,95.3,98.1,104,107,99.7,109,105,110,98,103,93.7,107,107,> 10,> 10,> 10,> 10,> 10,0,0,0,0,0
O=C(O)c1ccccc1Nc1cccc(OCc2ccc3ccccc3n2)c1 [SR-2640],87.9,96.3,96.9,101,105,105,98.1,103,99.2,101,105,103,107,96.8,91.7,97.6,94.6,103,98.2,98.4,92,98.9,92.9,95,86.9,> 10,> 10,> 10,> 10,> 10,0,0,0,0,0
CNC(=O)c1ccc2c(c1)CCO[C@H]2CCN1CCN(c2ccc(C(N)=O)cc2)CC1,103,104,95.2,98.9,99.6,99.5,106,100,103,101,94.9,105,91.9,102,97.1,99.7,81.1,95.2,107,100,105,102,104,99.1,107,> 10,> 10,> 10,> 10,> 10,0,0,0,0,0
C[C@H](NC[C@H](O)CP(=O)(O)CC1CCCCC1)c1ccc(Cl)c(Cl)c1,103,97.6,99.3,98.6,96.8,94.6,102,94.2,101,99.8,96.1,92.1,93.9,99.5,91.4,76.5,104,95.2,102,91.7,107,101,104,98.7,104,> 10,> 10,> 10,> 10,> 10,0,0,0,0,0
CC=CC1=C(C(=O)O)N2C(=O)[C@@H](NC(=O)[C@H](N)c3ccc(O)cc3)[C@H]2SC1 (mixture of isomers) [cefprozil],112,104,100,97.2,106,95.8,101,96.8,99.8,98.7,101,94.3,82.7,120,125,86.7,94.2,81,97.8,95.5,110,90.7,99.9,103,112,> 10,> 10,> 10,> 10,> 10,0,0,0,0,0
Cc1c(C(=O)NCc2cccnc2)nn(-c2ccc(Cl)cc2Cl)c1-c1ccc(Cl)cc1 [MJ-15],91.8,111,96.2,101,98.8,99.2,96.5,102,88.8,95.3,88,87.7,92.2,84.3,79.1,90.5,86.7,103,90.4,97,92.5,96.4,94.8,90.2,99.2,> 10,> 10,> 10,> 10,> 10,0,0,0,0,0
Cc1nc2cnc3ccc(C#Cc4cccnc4)cc3c2n1-c1ccc(C(C)(C)C#N)cc1 [BAG-956],104,103,93.3,62.3,41.4,97.4,101,88.8,24.9,23.8,97.8,101,79.7,33.5,33.3,92.7,96.2,79,27.7,30.2,104,103,97.5,42.6,35.3,0.604,0.202,0.139,0.144,0.41,7.9,15.8,15.3,16.3,10.8
C[C@H]1[C@H](C)CC[C@]2(C(=O)O)CC[C@]3(C)C(=CC[C@@H]4[C@@]5(C)C[C@@H](O)[C@H](O)[C@@](C)(CO)[C@@H]5CC[C@]43C)[C@H]12 [asiatic-acid],83.4,80.2,78.6,90.2,88.9,98.1,105,95.6,104,96.9,101,104,89.2,94.2,95.6,98.3,93.2,106,90.6,97.5,106,111,106,93,105,> 10,> 10,> 10,> 10,> 10,0,0,0.4,0,0
